Measurements as given in PubChem BioAssay (NCI).
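Briefly, cells in 96-well plates were exposed to five compound concentrations for 48 h, and endpoints were estimated by linear interpolation. At the GI50, growth is halved. At the TGI there is no net growth.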

Tests used:
Assay in all cases: NCI-60 cell line screen, 48 h
SNB-19 CNS = test system: SNB-19 CNS
UO-31 renal = test system: UO-31 renal
A549 NSCLC = test system: A549 NSCLC
RXF 393 renal = test system: RXF 393 renal
EKVX NSCLC = test system: EKVX NSCLC
786-0 renal = test system: 786-0 renal
UACC-62 melanoma = test system: UACC-62 melanoma
HS 578T breast = test system: HS 578T breast
NCI/ADR-RES ovarian = test system: NCI/ADR-RES ovarian
UACC-257 melanoma = test system: UACC-257 melanoma
BT-549 breast = test system: BT-549 breast
SK-OV-3 ovarian = test system: SK-OV-3 ovarian
DU-145 prostate = test system: DU-145 prostate
U251 CNS = test system: U251 CNS
MDA-MB-435 = test system: MDA-MB-435
MDA-MB-231 breast = test system: MDA-MB-231 breast
HCC-2998 colon = test system: HCC-2998 colon
PC-3 prostate = test system: PC-3 prostate
COLO 205 colon = test system: COLO 205 colon
SF-268 CNS = test system: SF-268 CNS
SF-295 CNS = test system: SF-295 CNS
IGROV1 ovarian = test system: IGROV1 ovarian
SR leukemia = test system: SR leukemia
A498 renal = test system: A498 renal
HCT-116 colon = test system: HCT-116 colon
SK-MEL-2 melanoma = test system: SK-MEL-2 melanoma
K-562 leukemia = test system: K-562 leukemia
OVCAR-3 ovarian = test system: OVCAR-3 ovarian
HCT-15 colon = test system: HCT-15 colon
KM12 colon = test system: KM12 colon
LOX IMVI melanoma = test system: LOX IMVI melanoma
M14 melanoma = test system: M14 melanoma
T-47D breast = test system: T-47D breast
SN12C renal = test system: SN12C renal
RPMI-8226 leukemia = test system: RPMI-8226 leukemia
OVCAR-8 ovarian = test system: OVCAR-8 ovarian
MCF7 breast = test system: MCF7 breast
CCRF-CEM leukemia = test system: CCRF-CEM leukemia
HOP-62 NSCLC = test system: HOP-62 NSCLC
NCI-H226 lung = test system: NCI-H226 lung
CAKI-1 renal = test system: CAKI-1 renal
NCI-H23 lung = test system: NCI-H23 lung
SK-MEL-5 melanoma = test system: SK-MEL-5 melanoma
HL-60(TB) leukemia = test system: HL-60(TB) leukemia
SF-539 CNS = test system: SF-539 CNS
TK-10 renal = test system: TK-10 renal
MALME-3M melanoma = test system: MALME-3M melanoma
NCI-H522 lung = test system: NCI-H522 lung
ACHN renal = test system: ACHN renal
NCI-H460 lung = test system: NCI-H460 lung
SW-620 colon = test system: SW-620 colon
SNB-75 CNS = test system: SNB-75 CNS
SK-MEL-28 melanoma = test system: SK-MEL-28 melanoma
OVCAR-4 ovarian = test system: OVCAR-4 ovarian
MOLT-4 leukemia = test system: MOLT-4 leukemia
HT29 colon = test system: HT29 colon
OVCAR-5 ovarian = test system: OVCAR-5 ovarian

CC1(N)CCN(c2cccnc2NC(=O)c2nc(-c3ncccc3C(F)(F)F)cnc2N)CC1
GI50 (SNB-19 CNS): 50 µM | TGI (SNB-19 CNS): > 100 µM | GI50 (UO-31 renal): 16.6 µM | TGI (UO-31 renal): > 100 µM | GI50 (A549 NSCLC): 22 µM | TGI (A549 NSCLC): > 100 µM | GI50 (RXF 393 renal): 10.1 µM | TGI (RXF 393 renal): 32.4 µM | GI50 (EKVX NSCLC): 34.9 µM | TGI (EKVX NSCLC): > 100 µM | GI50 (786-0 renal): 15.3 µM | TGI (786-0 renal): > 100 µM | GI50 (UACC-62 melanoma): 61.2 µM | TGI (UACC-62 melanoma): > 100 µM | GI50 (HS 578T breast): 38.5 µM | TGI (HS 578T breast): > 100 µM | GI50 (NCI/ADR-RES ovarian): 68.7 µM | TGI (NCI/ADR-RES ovarian): > 100 µM | GI50 (UACC-257 melanoma): 18.1 µM | TGI (UACC-257 melanoma): 34.1 µM | GI50 (BT-549 breast): 18.2 µM | TGI (BT-549 breast): > 100 µM | GI50 (SK-OV-3 ovarian): 7.86 µM | TGI (SK-OV-3 ovarian): 73.8 µM | GI50 (DU-145 prostate): 35.3 µM | TGI (DU-145 prostate): > 100 µM | GI50 (U251 CNS): 21.8 µM | TGI (U251 CNS): > 100 µM | GI50 (MDA-MB-435): 41.6 µM | TGI (MDA-MB-435): > 100 µM | GI50 (MDA-MB-231 breast): 27.8 µM | TGI (MDA-MB-231 breast): > 100 µM | GI50 (HCC-2998 colon): > 100 µM | TGI (HCC-2998 colon): > 100 µM | GI50 (PC-3 prostate): 30.9 µM | TGI (PC-3 prostate): > 100 µM | GI50 (COLO 205 colon): 5.48 µM | TGI (COLO 205 colon): 36.6 µM | GI50 (SF-268 CNS): 31.5 µM | TGI (SF-268 CNS): > 100 µM | GI50 (SF-295 CNS): 99.3 µM | TGI (SF-295 CNS): > 100 µM | GI50 (IGROV1 ovarian): 3.67 µM | TGI (IGROV1 ovarian): > 100 µM | GI50 (SR leukemia): 3.3 µM | TGI (SR leukemia): 35.5 µM | GI50 (A498 renal): 34.7 µM | TGI (A498 renal): > 100 µM | GI50 (HCT-116 colon): 13.5 µM | TGI (HCT-116 colon): > 100 µM | GI50 (SK-MEL-2 melanoma): 50.9 µM | TGI (SK-MEL-2 melanoma): > 100 µM | GI50 (K-562 leukemia): 22.3 µM | TGI (K-562 leukemia): > 100 µM | GI50 (OVCAR-3 ovarian): 26.2 µM | TGI (OVCAR-3 ovarian): > 100 µM | GI50 (HCT-15 colon): 25.1 µM | TGI (HCT-15 colon): > 100 µM | GI50 (KM12 colon): 0.413 µM | TGI (KM12 colon): > 100 µM | GI50 (LOX IMVI melanoma): 21.5 µM | TGI (LOX IMVI melanoma): 53.4 µM | GI50 (M14 melanoma): 25.9 µM | TGI (M14 melanoma): 80.3 µM | GI50 (T-47D breast): 17.5 µM | TGI (T-47D breast): 48.3 µM | GI50 (SN12C renal): 16.2 µM | TGI (SN12C renal): > 100 µM | GI50 (RPMI-8226 leukemia): 24.4 µM | TGI (RPMI-8226 leukemia): > 100 µM | GI50 (OVCAR-8 ovarian): 40.2 µM | TGI (OVCAR-8 ovarian): > 100 µM | GI50 (MCF7 breast): 26.2 µM | TGI (MCF7 breast): > 100 µM | GI50 (CCRF-CEM leukemia): 26.9 µM | TGI (CCRF-CEM leukemia): > 100 µM | GI50 (HOP-62 NSCLC): 37.5 µM | TGI (HOP-62 NSCLC): > 100 µM | GI50 (NCI-H226 lung): 35.9 µM | TGI (NCI-H226 lung): > 100 µM | GI50 (CAKI-1 renal): 17.8 µM | TGI (CAKI-1 renal): > 100 µM | GI50 (NCI-H23 lung): 49.5 µM | TGI (NCI-H23 lung): > 100 µM | GI50 (SK-MEL-5 melanoma): 18.3 µM | TGI (SK-MEL-5 melanoma): 33 µM | GI50 (HL-60(TB) leukemia): 12.4 µM | TGI (HL-60(TB) leukemia): 37.8 µM | GI50 (SF-539 CNS): 14.4 µM | TGI (SF-539 CNS): 33.7 µM | GI50 (TK-10 renal): 4.35 µM | TGI (TK-10 renal): > 100 µM | GI50 (MALME-3M melanoma): 17.6 µM | TGI (MALME-3M melanoma): 36.4 µM | GI50 (NCI-H522 lung): 15.1 µM | TGI (NCI-H522 lung): 47.9 µM | GI50 (ACHN renal): 19.2 µM | TGI (ACHN renal): > 100 µM | GI50 (NCI-H460 lung): 41.1 µM | TGI (NCI-H460 lung): > 100 µM | GI50 (SW-620 colon): 28.4 µM | TGI (SW-620 colon): > 100 µM | GI50 (SNB-75 CNS): 18.9 µM | TGI (SNB-75 CNS): > 100 µM | GI50 (SK-MEL-28 melanoma): 25 µM | TGI (SK-MEL-28 melanoma): 85.6 µM | GI50 (OVCAR-4 ovarian): 21.5 µM | TGI (OVCAR-4 ovarian): > 100 µM | GI50 (MOLT-4 leukemia): 13.9 µM | TGI (MOLT-4 leukemia): 69.7 µM | GI50 (HT29 colon): 19.6 µM | TGI (HT29 colon): > 100 µM | GI50 (OVCAR-5 ovarian): 20 µM | TGI (OVCAR-5 ovarian): > 100 µM
